Data from ChEMBL document CHEMBL1144805, “The cephalostatin way of apoptosis” (2008).

Legend:
[1] = tested on: UO-31; experiment: Cytotoxicity against human UO31 cells; type: functional
[2] = tested on: KM-20L2; experiment: Cytotoxicity against human KM20L2 cells; type: functional
[3] = Cytotoxicity against human HL60(TB) cells; type: functional, HL-60(TB); conditions: HL-60
[4] = tested on: SNB-75; experiment: Cytotoxicity against human SNB75 cells; type: functional
[5] = tested on: OVCAR-8; experiment: Cytotoxicity against human OVCAR8 cells; type: functional
[6] = tested on: SK-MEL-2; experiment: Cytotoxicity against human SK-MEL-2 cells; type: functional
[7] = tested on: NCI-H226; experiment: Cytotoxicity against human NCI-H226 cells; type: functional
[8] = tested on: EKVX; experiment: Cytotoxicity against human EKVX cells; type: functional
[9] = tested on: HT-29; experiment: Cytotoxicity against human HT29 cells; type: functional
[10] = Cytotoxicity against human […] cells; type: functional
[11] = tested on: K562; experiment: Cytotoxicity against human K562 cells; type: functional
[12] = tested on: RPMI-8226; experiment: Cytotoxicity against human RPMI8226 cells; type: functional
[13] = tested on: UACC-62; experiment: Cytotoxicity against human UACC62 cells; type: functional
[14] = tested on: SK-MEL-28; experiment: Cytotoxicity against human SK-MEL-28 cells; type: functional
[15] = tested on: NCI-H322M; experiment: Cytotoxicity against human NCI-H322M cells; type: functional
[16] = tested on: CAKI-1; experiment: Cytotoxicity against human CAKI1 cells; type: functional
[17] = tested on: T47D; experiment: Cytotoxicity against human T47D cells; type: functional
[18] = tested on: A549; experiment: Cytotoxicity against human A549 cells; type: functional
[19] = tested on: LOX IMVI; experiment: Cytotoxicity against human LOXIMVI cells; type: functional
[20] = tested on: SF-268; experiment: Cytotoxicity against human SF268 cells; type: functional
[21] = tested on: HOP-92; experiment: Cytotoxicity against human HOP92 cells; type: functional
[22] = tested on: MOLT-4; experiment: Cytotoxicity against human MOLT4 cells; type: functional
[23] = tested on: HOP-62; experiment: Cytotoxicity against human HOP62 cells; type: functional
[24] = Cytotoxicity against human LXFL529 cells; type: functional; conditions: LXFL 529
[25] = tested on: HCT-116; experiment: Cytotoxicity against human HCT116 cells; type: functional
[26] = tested on: M14; experiment: Cytotoxicity against human M14 cells; type: functional
[27] = tested on: DLD-1; experiment: Cytotoxicity against human DLD1 cells; type: functional
[28] = tested on: NCI-H23; experiment: Cytotoxicity against human NCI-H23 cells; type: functional
[29] = tested on: M19-MEL; experiment: Cytotoxicity against human M19-MEL cells; type: functional
[30] = tested on: SK-OV-3; experiment: Cytotoxicity against human SK-OV-3 cells; type: functional
[31] = tested on: SF-539; experiment: Cytotoxicity against human SF539 cells; type: functional
[32] = tested on: OVCAR-3; experiment: Cytotoxicity against human OVCAR-3 cells; type: functional
[33] = tested on: NCI-H522; experiment: Cytotoxicity against human NCI-H522 cells; type: functional
[34] = tested on: SF-295; experiment: Cytotoxicity against human SF295 cells; type: functional
[35] = tested on: ACHN; experiment: Cytotoxicity against human ACHN cells; type: functional
[36] = tested on: MDA-MB-231; experiment: Cytotoxicity against human MDA-MB-231 cells; type: functional
[37] = tested on: Hs-578T; experiment: Cytotoxicity against human HS578T cells; type: functional
[38] = tested on: COLO 205; experiment: Cytotoxicity against human COLO205 cells; type: functional
[39] = tested on: NCI/ADR-RES; experiment: Cytotoxicity against human NCI/ADR-RES cells; type: functional
[40] = Cytotoxicity against human TK20 cells; type: functional
[41] = tested on: MDA-N; experiment: Cytotoxicity against human MDAN cells; type: functional
[42] = Cytotoxicity against human RXF631 cells; type: functional; conditions: RXF 631
[43] = tested on: HCT-15; experiment: Cytotoxicity against human HCT15 cells; type: functional
[44] = tested on: HOP-18; experiment: Cytotoxicity against human HOP18 cells; type: functional
[45] = tested on: UACC-257; experiment: Cytotoxicity against human UACC257 cells; type: functional
[46] = Cytotoxicity against human 786-O cells; type: functional; conditions: 786-0
[47] = tested on: MDA-MB-435; experiment: Cytotoxicity against human MDA-MB-435 cells; type: functional
[48] = tested on: SNB-78; experiment: Cytotoxicity against human SNB78 cells; type: functional
[49] = tested on: PC-3; experiment: Cytotoxicity against human PC3 cells; type: functional
[50] = tested on: DMS-273; experiment: Cytotoxicity against human DMS273 cells; type: functional
[51] = Cytotoxicity against human HCC2996 cells; type: functional
[52] = tested on: OVCAR-5; experiment: Cytotoxicity against human OVCAR5 cells; type: functional
[53] = tested on: U-251; experiment: Cytotoxicity against human U251 cells; type: functional
[54] = tested on: SW-620; experiment: Cytotoxicity against human SW620 cells; type: functional
[55] = tested on: NCI-H460; experiment: Cytotoxicity against human NCI-H460 cells; type: functional
[56] = Cytotoxicity against human DMS144 cells; type: functional
[57] = tested on: CCRF-CEM; experiment: Cytotoxicity against human CCRF-CEM cells; type: functional
[58] = tested on: IGROV-1; experiment: Cytotoxicity against human IGROV1 cells; type: functional
[59] = tested on: Malme-3M; experiment: Cytotoxicity against human MALME3M cells; type: functional
[60] = tested on: SN12C; experiment: Cytotoxicity against human SN12C cells; type: functional
[61] = tested on: RXF 393; experiment: Cytotoxicity against human RXF393 cells; type: functional
[62] = tested on: XF498; experiment: Cytotoxicity against human XF498 cells; type: functional
[63] = tested on: KM12; experiment: Cytotoxicity against human KM12 cells; type: functional
[64] = tested on: BT-549; experiment: Cytotoxicity against human BT549 cells; type: functional
[65] = tested on: DU-145; experiment: Cytotoxicity against human DU145 cells; type: functional
[66] = tested on: SNB-19; experiment: Cytotoxicity against human SNB19 cells; type: functional
[67] = tested on: OVCAR-4; experiment: Cytotoxicity against human OVCAR4 cells; type: functional
[68] = tested on: MCF7; experiment: Cytotoxicity against human MCF7 cells; type: functional
[69] = tested on: SR; experiment: Cytotoxicity against human SR cells; type: functional
[70] = tested on: SK-MEL-5; experiment: Cytotoxicity against human SK-MEL-5 cells; type: functional

## C[C@@H]1[C@]2(O[C@H]3C=C4[C@@H]5CC[C@H]6Cc7nc8c(nc7C[C@]6(C)[C@H]5C[C@@H](O)[C@]4(C)[C@]31O)C[C@@H]1CC[C@H]3C4=CC[C@@H]5[C@H](C)[C@@]6(OC[C@]45C(=O)C[C@@H]3[C@@]1(C)C8)OC(C)(C)C[C@H]6O)O[C@](C)(CO)C[C@H]2O [CEPHALOSTATIN 1]
[1]
  GI50: 0.617 nM
[2]
  GI50: 1.2 nM
[3]
  GI50: 0.355 nM
[4]
  GI50: 0.1 nM
[5]
  GI50: 60.3 nM
[6]
  GI50: 1.1 nM
[7]
  GI50: 275 nM
[8]
  GI50: 5.37 nM
[9]
  GI50: 2.82 nM
[10]
  GI50: 1.41 nM
[11]
  GI50: 0.617 nM
[12]
  GI50: 0.107 nM
[13]
  GI50: 0.316 nM
[14]
  GI50: 0.617 nM
[15]
  GI50: 91.2 nM
[16]
  GI50: 1.55 nM
[17]
  GI50: 245 nM
[18]
  GI50: 0.513 nM
[19]
  GI50: 0.324 nM
[20]
  GI50: 1.1 nM
[21]
  GI50: 0.661 nM
[22]
  GI50: 0.204 nM
[23]
  GI50: 0.24 nM
[24]
  GI50: 0.331 nM
[25]
  GI50: 0.692 nM
[26]
  GI50: 0.955 nM
[27]
  GI50: 41.7 nM
[28]
  GI50: 550 nM
[29]
  GI50: 617 nM
[30]
  GI50: 1.02 nM
[31]
  GI50: 0.151 nM
[32]
  GI50: 70.8 nM
[33]
  GI50: 120 nM
[34]
  GI50: 0.123 nM
[35]
  GI50: 8.13 nM
[36]
  GI50: 1.2 nM
[37]
  GI50: 0.112 nM
[38]
  GI50: 1.55 nM
[39]
  GI50: 69.2 nM
[40]
  GI50: 33.9 nM
[41]
  GI50: 1.86 nM
[42]
  GI50: 0.309 nM
[43]
  GI50: 4.07 nM
[44]
  GI50: 72.4 nM
[45]
  GI50: 4.27 nM
[46]
  GI50: 0.17 nM
[47]
  GI50: 0.813 nM
[48]
  GI50: 0.776 nM
[49]
  GI50: 0.288 nM
[50]
  GI50: 0.11 nM
[51]
  GI50: 95.5 nM
[52]
  GI50: 13.2 nM
[53]
  GI50: 0.182 nM
[54]
  GI50: 0.977 nM
[55]
  GI50: 0.269 nM
[56]
  GI50: 0.166 nM
[57]
  GI50: 0.309 nM
[58]
  GI50: 3.98 nM
[59]
  GI50: 8.13 nM
[60]
  GI50: 295 nM
[61]
  GI50: 0.1 nM
[62]
  GI50: 0.724 nM
[63]
  GI50: 1.86 nM
[64]
  GI50: 0.759 nM
[65]
  GI50: 53.7 nM
[66]
  GI50: 4.57 nM
[67]
  GI50: 38.9 nM
[68]
  GI50: 0.355 nM
[69]
  GI50: 0.209 nM
[70]
  GI50: 2.34 nM
